Source: PubChem BioAssay (NCI)
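1) Cells in 96-well plates. 2) Compound, 48 h, 5 concentrations. 3) Linear interpolation between surrounding doses. 4) Unreached endpoint = highest concentration. Definition used: TGI = concentration required for complete inhibition of growth.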 Where a SMILES comes first, the peptide text is derived from it. The star is where a group is joined. Cbz = O=C(OCc1ccccc1)*

Legend:
Experiment in all cases: NCI tumour cell line growth inhibition, 48 h
A549 NSCLC = tested on: A549 NSCLC
CAKI-1 renal = tested on: CAKI-1 renal
CCRF-CEM leukemia = tested on: CCRF-CEM leukemia
EKVX NSCLC = tested on: EKVX NSCLC
HCT-15 colon = tested on: HCT-15 colon
K-562 leukemia = tested on: K-562 leukemia
KM12 colon = tested on: KM12 colon
LOX IMVI melanoma = tested on: LOX IMVI melanoma
MALME-3M melanoma = tested on: MALME-3M melanoma
NCI-H226 lung = tested on: NCI-H226 lung
RPMI-8226 leukemia = tested on: RPMI-8226 leukemia
SF-268 CNS = tested on: SF-268 CNS
SK-MEL-2 melanoma = tested on: SK-MEL-2 melanoma
SN12C renal = tested on: SN12C renal
SNB-19 CNS = tested on: SNB-19 CNS
SW-620 colon = tested on: SW-620 colon
TK-10 renal = tested on: TK-10 renal
UO-31 renal = tested on: UO-31 renal
HCC-2998 colon = tested on: HCC-2998 colon
SK-OV-3 ovarian = tested on: SK-OV-3 ovarian

COc1ccc(N/N=C/C2=CC(C)(C)C(C#N)(C#N)C(O)=C2C#N)cc1
TGI (A549 NSCLC): > 100 µM
TGI (CAKI-1 renal): > 100 µM
TGI (CCRF-CEM leukemia): > 100 µM
TGI (EKVX NSCLC): > 100 µM
TGI (HCT-15 colon): > 100 µM
TGI (K-562 leukemia): > 100 µM
TGI (KM12 colon): > 100 µM
TGI (LOX IMVI melanoma): > 100 µM
TGI (MALME-3M melanoma): > 100 µM
TGI (NCI-H226 lung): > 100 µM
TGI (RPMI-8226 leukemia): > 100 µM
TGI (SF-268 CNS): > 100 µM
TGI (SK-MEL-2 melanoma): > 100 µM
TGI (SN12C renal): > 100 µM
TGI (SNB-19 CNS): > 100 µM
TGI (SW-620 colon): > 100 µM
TGI (TK-10 renal): > 100 µM
TGI (UO-31 renal): > 100 µM

Cc1ccc(N=C2OP(=O)(Nc3ccc(C)cc3)Oc3ccccc32)cc1 (stereo not drawn)
TGI (A549 NSCLC): > 100 µM
TGI (CAKI-1 renal): > 100 µM
TGI (CCRF-CEM leukemia): > 100 µM
TGI (EKVX NSCLC): > 100 µM
TGI (HCC-2998 colon): > 100 µM
TGI (HCT-15 colon): > 100 µM
TGI (K-562 leukemia): > 100 µM
TGI (KM12 colon): > 100 µM
TGI (LOX IMVI melanoma): > 100 µM
TGI (MALME-3M melanoma): > 100 µM
TGI (NCI-H226 lung): > 100 µM
TGI (SF-268 CNS): > 100 µM
TGI (SK-MEL-2 melanoma): > 100 µM
TGI (SK-OV-3 ovarian): > 100 µM
TGI (SN12C renal): > 100 µM
TGI (SNB-19 CNS): > 100 µM
TGI (SW-620 colon): > 100 µM
TGI (TK-10 renal): > 100 µM
TGI (UO-31 renal): > 100 µM

COc1ccc2c(=O)c3c([nH]c2c1)OCC3=O
TGI (CAKI-1 renal): > 100 µM
TGI (CCRF-CEM leukemia): > 100 µM
TGI (EKVX NSCLC): > 100 µM
TGI (HCC-2998 colon): > 100 µM
TGI (HCT-15 colon): > 100 µM
TGI (K-562 leukemia): > 100 µM
TGI (KM12 colon): > 100 µM
TGI (LOX IMVI melanoma): > 100 µM
TGI (NCI-H226 lung): > 100 µM
TGI (RPMI-8226 leukemia): > 100 µM
TGI (SF-268 CNS): > 100 µM
TGI (SK-MEL-2 melanoma): > 100 µM
TGI (SK-OV-3 ovarian): > 100 µM
TGI (SNB-19 CNS): > 100 µM
TGI (SW-620 colon): > 100 µM
TGI (TK-10 renal): > 100 µM
TGI (UO-31 renal): > 100 µM

O=C(c1ccccc1)N(CCCCNC(=O)C(F)(F)F)CCCNC(=O)C(F)(F)F
TGI (A549 NSCLC): > 100 µM
TGI (CAKI-1 renal): > 100 µM
TGI (CCRF-CEM leukemia): > 100 µM
TGI (EKVX NSCLC): > 100 µM
TGI (HCC-2998 colon): > 100 µM
TGI (HCT-15 colon): > 100 µM
TGI (K-562 leukemia): > 100 µM
TGI (KM12 colon): > 100 µM
TGI (LOX IMVI melanoma): > 100 µM
TGI (MALME-3M melanoma): > 100 µM
TGI (NCI-H226 lung): > 100 µM
TGI (RPMI-8226 leukemia): > 100 µM
TGI (SF-268 CNS): > 100 µM
TGI (SK-OV-3 ovarian): > 100 µM
TGI (SN12C renal): > 100 µM
TGI (SNB-19 CNS): > 100 µM
TGI (SW-620 colon): > 100 µM
TGI (TK-10 renal): > 100 µM
TGI (UO-31 renal): > 100 µM

Cc1nc(C)c(N2CCN(S(N)(=O)=O)CC2)c(=O)[nH]1
TGI (A549 NSCLC): > 100 µM
TGI (CAKI-1 renal): > 100 µM
TGI (CCRF-CEM leukemia): > 100 µM
TGI (EKVX NSCLC): > 100 µM
TGI (HCC-2998 colon): > 100 µM
TGI (HCT-15 colon): > 100 µM
TGI (K-562 leukemia): > 100 µM
TGI (KM12 colon): > 100 µM
TGI (LOX IMVI melanoma): > 100 µM
TGI (MALME-3M melanoma): > 100 µM
TGI (NCI-H226 lung): > 100 µM
TGI (RPMI-8226 leukemia): > 100 µM
TGI (SF-268 CNS): > 100 µM
TGI (SK-OV-3 ovarian): > 100 µM
TGI (SN12C renal): > 100 µM
TGI (SNB-19 CNS): > 100 µM
TGI (SW-620 colon): > 100 µM
TGI (TK-10 renal): > 100 µM
TGI (UO-31 renal): > 100 µM

N#CC(C(=O)CCC(=O)Nc1cccc(C(F)(F)F)c1)c1ccccc1 (stereo not drawn)
TGI (A549 NSCLC): > 100 µM
TGI (CAKI-1 renal): > 100 µM
TGI (CCRF-CEM leukemia): > 100 µM
TGI (EKVX NSCLC): > 100 µM
TGI (HCC-2998 colon): > 100 µM
TGI (HCT-15 colon): > 100 µM
TGI (K-562 leukemia): > 100 µM
TGI (KM12 colon): > 100 µM
TGI (LOX IMVI melanoma): > 100 µM
TGI (MALME-3M melanoma): > 100 µM
TGI (NCI-H226 lung): > 100 µM
TGI (RPMI-8226 leukemia): > 100 µM
TGI (SF-268 CNS): > 100 µM
TGI (SK-MEL-2 melanoma): > 100 µM
TGI (SN12C renal): > 100 µM
TGI (SNB-19 CNS): > 100 µM
TGI (SW-620 colon): > 100 µM
TGI (TK-10 renal): > 100 µM
TGI (UO-31 renal): > 100 µM

COC(=O)C(CC(C)C)NC(=O)C(CCCN=C(N)N)NC(=O)OCc1ccccc1 (stereo not drawn) (Cbz-Arg-Leu-OMe; configuration not given here)
TGI (A549 NSCLC): > 100 µM
TGI (CAKI-1 renal): > 100 µM
TGI (CCRF-CEM leukemia): > 100 µM
TGI (EKVX NSCLC): > 100 µM
TGI (HCC-2998 colon): > 100 µM
TGI (HCT-15 colon): > 100 µM
TGI (K-562 leukemia): > 100 µM
TGI (KM12 colon): > 100 µM
TGI (LOX IMVI melanoma): > 100 µM
TGI (MALME-3M melanoma): > 100 µM
TGI (NCI-H226 lung): > 100 µM
TGI (RPMI-8226 leukemia): > 100 µM
TGI (SF-268 CNS): > 100 µM
TGI (SK-OV-3 ovarian): > 100 µM
TGI (SN12C renal): > 100 µM
TGI (SNB-19 CNS): > 100 µM
TGI (SW-620 colon): > 100 µM
TGI (TK-10 renal): > 100 µM
TGI (UO-31 renal): > 100 µM

Cc1ccc2nc(CN(CCO)CCO)cc(=O)n2c1
TGI (A549 NSCLC): > 100 µM
TGI (CAKI-1 renal): > 100 µM
TGI (CCRF-CEM leukemia): > 100 µM
TGI (EKVX NSCLC): > 100 µM
TGI (HCC-2998 colon): > 100 µM
TGI (HCT-15 colon): > 100 µM
TGI (K-562 leukemia): > 100 µM
TGI (KM12 colon): > 100 µM
TGI (LOX IMVI melanoma): > 100 µM
TGI (MALME-3M melanoma): > 100 µM
TGI (NCI-H226 lung): > 100 µM
TGI (SF-268 CNS): > 100 µM
TGI (SK-MEL-2 melanoma): > 100 µM
TGI (SK-OV-3 ovarian): > 100 µM
TGI (SN12C renal): > 100 µM
TGI (SNB-19 CNS): > 100 µM
TGI (SW-620 colon): > 100 µM
TGI (TK-10 renal): > 100 µM
TGI (UO-31 renal): > 100 µM

Cc1c(C(=O)Nc2ccccc2)nnn1-c1ccnc2cc(C(F)(F)F)ccc12
TGI (A549 NSCLC): > 100 µM
TGI (CAKI-1 renal): > 100 µM
TGI (CCRF-CEM leukemia): 81.5 µM
TGI (EKVX NSCLC): > 100 µM
TGI (HCC-2998 colon): > 100 µM
TGI (HCT-15 colon): > 100 µM
TGI (K-562 leukemia): > 100 µM
TGI (KM12 colon): > 100 µM
TGI (LOX IMVI melanoma): 78.1 µM
TGI (MALME-3M melanoma): > 100 µM
TGI (NCI-H226 lung): > 100 µM
TGI (SF-268 CNS): > 100 µM
TGI (SK-MEL-2 melanoma): > 100 µM
TGI (SK-OV-3 ovarian): > 100 µM
TGI (SN12C renal): > 100 µM
TGI (SNB-19 CNS): > 100 µM
TGI (SW-620 colon): > 100 µM
TGI (TK-10 renal): > 100 µM
TGI (UO-31 renal): > 100 µM

CNS(=O)(=O)NNS(=O)(=O)c1ccc(F)cc1
TGI (A549 NSCLC): > 100 µM
TGI (CAKI-1 renal): > 100 µM
TGI (CCRF-CEM leukemia): > 100 µM
TGI (EKVX NSCLC): > 100 µM
TGI (HCT-15 colon): > 100 µM
TGI (K-562 leukemia): > 100 µM
TGI (KM12 colon): > 100 µM
TGI (LOX IMVI melanoma): > 100 µM
TGI (NCI-H226 lung): > 100 µM
TGI (RPMI-8226 leukemia): > 100 µM
TGI (SF-268 CNS): > 100 µM
TGI (SK-MEL-2 melanoma): > 100 µM
TGI (SNB-19 CNS): > 100 µM
TGI (SW-620 colon): > 100 µM
TGI (UO-31 renal): > 100 µM
